For 21 compounds, TGI and GI50 results are on record in PubChem BioAssay (NCI).

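A five-concentration, 48-hour dose response in 96-well plates underlies each endpoint, interpolated linearly between surrounding concentrations. GI50: concentration for 50% inhibition of growth. TGI marks complete inhibition of growth.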 Some results are limits rather than exact numbers.

Test systems include EKVX NSCLC; SK-OV-3 ovarian; SK-MEL-28 melanoma; HCT-116 colon; CAKI-1 renal; TK-10 renal; NCI-H23 lung; T-47D breast; HT29 colon; HOP-92 NSCLC.
What all share (assay): inhibition of tumour cell growth, NCI panel, 48 h

As to `N#C/C(=C1/c2cc([N+](=O)[O-])ccc2-c2c1cc([N+](=O)[O-])cc2[N+](=O)[O-])N1CCCCC1`, the TGI in the assay with EKVX NSCLC, with SK-OV-3 ovarian, in the assay on SK-MEL-28 melanoma, with HCT-116 colon, in the assay on CAKI-1 renal and in the assay on TK-10 renal was above 100 µM each time. Also, the TGI in the assay with NCI-H23 lung, in the assay with T-47D breast and in the assay on HT29 colon was above 100 µM throughout.

For the compound `CC(C)(CN1CCCCC1)C(/C=C/c1ccccc1)=N\NC(=O)N/N=C(/C=C/c1ccccc1)C(C)(C)CN1CCCCC1`, the TGI in the assay on EKVX NSCLC is 20.7 µM; with SK-OV-3 ovarian, 9.52 µM; in the assay with SK-MEL-28 melanoma it was 3.07 µM; in the assay on HCT-116 colon, 2.93 µM; in the assay on HOP-92 NSCLC, 3.76 µM; with CAKI-1 renal it was 5.61 µM. Besides, the TGI with TK-10 renal stood at 3.36 µM; with NCI-H23 lung, 4.68 µM; in the assay on HT29 colon it was 2.53 µM.

As for `O=c1c(O)cccn1C1OC(CO)C(O)C1O` (configuration not stated), the TGI in the assay with EKVX NSCLC, with SK-OV-3 ovarian, with SK-MEL-28 melanoma, with HCT-116 colon, in the assay on HOP-92 NSCLC and in the assay with CAKI-1 renal was above 100 µM in each case. Besides, the TGI in the assay on TK-10 renal, in the assay on NCI-H23 lung and in the assay with HT29 colon was above 100 µM throughout.

Regarding `COC(=O)/C=c1/c2ccccc2n2c1c1ccccc1[n+]2C`, the TGI in the assay on EKVX NSCLC turned out to be 7.79 µM; in the assay with SK-OV-3 ovarian it was 6.93 µM; with SK-MEL-28 melanoma, 19.9 µM; with HCT-116 colon, 10.1 µM; in the assay on CAKI-1 renal it was 70.9 µM; with TK-10 renal, 9.93 µM. In addition, the figures for the TGI with NCI-H23 lung, with T-47D breast and with HT29 colon were 11.4 µM, above 100 µM and 12.8 µM, respectively.

Regarding `CCN1CCCn2c(=O)[nH]c3cc(Br)cc1c32`, the TGI with EKVX NSCLC, with SK-OV-3 ovarian, in the assay on SK-MEL-28 melanoma, in the assay on HCT-116 colon, with CAKI-1 renal and in the assay on TK-10 renal was above 100 µM in each case. For the same compound, the TGI with NCI-H23 lung, with T-47D breast and in the assay with HT29 colon was above 100 µM in each case.

As for `C[C@]12CC[C@H]3[C@@H](CCC4=C(Br)C(=O)C=C[C@@]43O)[C@@H]1CCC2=O`, the TGI in the assay on EKVX NSCLC is above 100 µM; in the assay on SK-OV-3 ovarian, above 100 µM; in the assay on SK-MEL-28 melanoma it was above 100 µM; in the assay on HCT-116 colon it was 80.1 µM; in the assay on HOP-92 NSCLC, 75.9 µM; in the assay on CAKI-1 renal, above 100 µM. Also, the TGI was 94.2 µM in the assay on TK-10 renal, above 100 µM with NCI-H23 lung and above 100 µM with HT29 colon.

In the case of `COc1cc2oc(=O)cc(C)c2c(OC)c1OC(C)=O`, the TGI in the assay with EKVX NSCLC, in the assay on SK-OV-3 ovarian, with SK-MEL-28 melanoma, in the assay on HCT-116 colon, with TK-10 renal and in the assay on NCI-H23 lung was above 100 µM in each case. In the assay with HT29 colon, this compound gave a TGI above 100 µM.

As for `CC(C)(Cc1ccccc1)N1C(=O)N1C(C)(C)Cc1ccccc1`, the TGI in the assay with EKVX NSCLC, with SK-OV-3 ovarian, in the assay with SK-MEL-28 melanoma, in the assay on HCT-116 colon, in the assay on CAKI-1 renal and in the assay with TK-10 renal was above 100 µM each time. The values for the TGI in the assay on NCI-H23 lung, in the assay on T-47D breast and in the assay on HT29 colon were 65.5 µM, above 100 µM and 32.9 µM, respectively.

For `Cc1nc2c(n1-c1ccccc1)C(=O)c1ccccc1C2=O`, the TGI in the assay on EKVX NSCLC was above 100 µM; in the assay on SK-OV-3 ovarian, above 100 µM; with SK-MEL-28 melanoma, above 100 µM; in the assay with HCT-116 colon, 73.1 µM; in the assay with CAKI-1 renal it was above 100 µM; with TK-10 renal it was above 100 µM. Moreover, the TGI with NCI-H23 lung and with HT29 colon was above 100 µM in each case.

In the case of `CS(=O)(=O)[O-].CS(=O)(=O)[O-].NC1CCCCC1N.[Pt+4]` (configuration not stated), the GI50 in the assay with EKVX NSCLC was above 100 µM; with SK-OV-3 ovarian, above 100 µM; in the assay on SK-MEL-28 melanoma, 71.6 µM; in the assay on HCT-116 colon, 37.4 µM; in the assay on HOP-92 NSCLC it was above 100 µM; in the assay with CAKI-1 renal, 41.8 µM. Further, the values for the GI50 with NCI-H23 lung and in the assay on HT29 colon were 88 µM and 62.3 µM, respectively. The TGI in the assay with EKVX NSCLC, with SK-OV-3 ovarian, in the assay with SK-MEL-28 melanoma, in the assay with HCT-116 colon, in the assay on HOP-92 NSCLC and in the assay on CAKI-1 renal was above 100 µM in each case. For the same compound, the TGI in the assay with NCI-H23 lung and in the assay on HT29 colon was above 100 µM each time.

In the case of `C[PH+](c1nc2ccccc2nc1[PH+](C)C(C)(C)C)C(C)(C)C.C[PH+](c1nc2ccccc2nc1[PH+](C)C(C)(C)C)C(C)(C)C.[Au+].[Cl-]` (configuration not stated), the GI50 is 0.0293 µM in the assay with SK-OV-3 ovarian; 0.0538 µM in the assay with SK-MEL-28 melanoma; 0.0205 µM with HCT-116 colon; 0.0225 µM with HOP-92 NSCLC; 0.222 µM with CAKI-1 renal; 0.0431 µM in the assay with TK-10 renal. In addition, the results for the GI50 in the assay on NCI-H23 lung and in the assay with HT29 colon were 0.0261 µM and 0.0294 µM, respectively. Besides, the TGI was 0.117 µM in the assay with SK-OV-3 ovarian; 1.5 µM with SK-MEL-28 melanoma; 0.0613 µM in the assay on HCT-116 colon; 0.0681 µM in the assay on HOP-92 NSCLC; 0.537 µM in the assay on CAKI-1 renal; 1.13 µM with TK-10 renal. The compound further showed a TGI in the assay with NCI-H23 lung of 0.104 µM.

As to `O=[N+]([O-])c1ccc2nc(/C=C(\O)c3ccc(Cl)cc3)c(/C=C(\O)c3ccc(Cl)cc3)nc2c1`, the TGI in the assay on EKVX NSCLC, in the assay on HCT-116 colon, in the assay on CAKI-1 renal, in the assay with TK-10 renal, in the assay with NCI-H23 lung and in the assay with T-47D breast was above 100 µM throughout. In the assay with HT29 colon, the TGI was above 100 µM.

On to `CCOC(=O)CCC(NC(=O)OCc1ccccc1)C(=O)NC(CCC(=O)OCC)C(=O)NC(CCC(=O)OCC)C(=O)NNC(=O)OC(C)(C)C` (configuration not stated), for which the TGI in the assay with EKVX NSCLC, with SK-MEL-28 melanoma, in the assay on HCT-116 colon, in the assay with HOP-92 NSCLC, in the assay with TK-10 renal and in the assay on NCI-H23 lung was above 100 µM each time. The compound further came in with a TGI in the assay on HT29 colon above 100 µM.

For the compound `C=CCCCCn1c2ccccc2c2c(C)c3cnccc3c(C)c21`, the TGI in the assay on EKVX NSCLC is 34.4 µM; in the assay on SK-OV-3 ovarian, 35.9 µM; in the assay with SK-MEL-28 melanoma, 40.8 µM; in the assay with HCT-116 colon, 20.9 µM; in the assay with HOP-92 NSCLC it was 19.8 µM; with CAKI-1 renal, 27.8 µM. Besides, the TGI stood at 32.8 µM in the assay with NCI-H23 lung and 25.7 µM with HT29 colon.

For the compound `O=c1nc2ccc3sc4ccccc4c(=O)c3n2c(=O)[nH]1`, the TGI with EKVX NSCLC, in the assay on SK-MEL-28 melanoma, with HCT-116 colon, in the assay with CAKI-1 renal, in the assay with TK-10 renal and with NCI-H23 lung was above 100 µM throughout. In the assay on HT29 colon, this compound registered a TGI above 100 µM.

For `O=C(O)Cc1ccccc1CCc1ccccc1Cl`, the TGI in the assay with EKVX NSCLC, with SK-OV-3 ovarian, in the assay on SK-MEL-28 melanoma, with HCT-116 colon, with HOP-92 NSCLC and with CAKI-1 renal was above 100 µM throughout. For the same compound, the TGI with TK-10 renal, in the assay on NCI-H23 lung and in the assay on HT29 colon was above 100 µM in each case.

Take `NNC(=O)Cn1ccnn1`: the TGI in the assay on EKVX NSCLC, in the assay with SK-MEL-28 melanoma, with HOP-92 NSCLC, in the assay on CAKI-1 renal, with TK-10 renal and in the assay with NCI-H23 lung was above 100 µM each time. Moreover, the TGI in the assay with HT29 colon was above 100 µM.

Consider `C=C(C)[C@@H]1CC[C@]2(CO)CC[C@]3(C)[C@H](CC[C@@H]4[C@@](C)(CCCN)[C@H](C(=C)C)CC[C@]43C)[C@@H]12`, for which the GI50 with SK-OV-3 ovarian is 1.71 µM; in the assay on SK-MEL-28 melanoma, 1.75 µM; with HCT-116 colon it was 1.4 µM; in the assay on HOP-92 NSCLC, 1.38 µM; in the assay with CAKI-1 renal it was 1.79 µM; in the assay with TK-10 renal it was 1.77 µM. In addition, in the assay with HT29 colon, the GI50 is 1.58 µM. Also, the TGI with SK-OV-3 ovarian is 3.18 µM; with SK-MEL-28 melanoma it was 3.14 µM; in the assay with HCT-116 colon, 3.02 µM; in the assay with HOP-92 NSCLC, 2.82 µM; in the assay on CAKI-1 renal, 3.21 µM; with TK-10 renal it was 3.39 µM. This compound gave a TGI in the assay on HT29 colon of 3.77 µM.

With `COc1cccc(NC(=O)CC(=O)N2N=C(C)C(N=Nc3ccc(C(=O)O)cc3)C2=O)c1` (configuration not stated), the TGI in the assay on EKVX NSCLC, with SK-MEL-28 melanoma, in the assay on HCT-116 colon, with CAKI-1 renal, in the assay on TK-10 renal and in the assay with NCI-H23 lung was above 100 µM throughout. In addition, the TGI in the assay with T-47D breast and with HT29 colon was above 100 µM in each case.

In the case of `O=c1c2cc(Br)ccc2ncn1COCc1ccccc1`, the TGI in the assay with EKVX NSCLC, with SK-OV-3 ovarian, in the assay with SK-MEL-28 melanoma, in the assay with HCT-116 colon, in the assay on HOP-92 NSCLC and in the assay with TK-10 renal was above 100 µM throughout. The compound also gave a TGI in the assay with HT29 colon above 1 µM.

For `C[C@]12CCC(=O)C=C1CC[C@@H]1[C@@H]2[C@@H](O)C[C@@]2(C)[C@H]1CC[C@]2(O)C(=O)COC(=O)CCC1CCCC1`, the TGI in the assay on EKVX NSCLC, with SK-OV-3 ovarian, in the assay on SK-MEL-28 melanoma, in the assay on HCT-116 colon, with HOP-92 NSCLC and in the assay on CAKI-1 renal was above 100 µM throughout. In addition, the TGI in the assay on TK-10 renal, in the assay with NCI-H23 lung and with HT29 colon was above 100 µM in each case.
